Assay results: US4716171A (Etablissements Nativelle S.A., priority 1981, dated 1987)
Like-named read-outs stand apart in the source and are kept apart here.

What was measured:
[1] = LD50 in mice (Lichfield and Wilcoxon method); details: mouse, in vivo
From the text: (§1) For example, the results obtained with 3S-hydroxy-10,11-dihydroquinidine in the form of the hydrochloride salt are shown in Table 1 below.

[2] = LD50 in rats (Lichfield and Wilcoxon method); details: rat, in vivo, male, oral
From the text: as §1

[3] = Electrophysiological study in anesthetized dog (closed thorax, bipolar catheter-electrodes); assay type: in vivo
Procedure: The study was carried out on a dog anesthetized with pentobarbital, with a closed thorax, by means of bipolar catheter-electrodes introduced into the cardiac cavities by transcutaneous venous and arterial tracts.
In this manner and by means of a programmable stimulator, sinusal automaticity, intracardiac conduction times, and the effective and functional cardiac refractory periods can be measured.

arrhythmia = experiment: Test with aconitine (arrhythmia appearance time); assay type: in vivo, rats; details: for Appearance Time, ESV (ventricular extrasystoles): control 98; for Appearance Time, TV (ventricular tachycardium): control 112; for Appearance Time, FV (ventricular fibrillation): control 228; for Appearance Time, ESV (ventricular extrasystoles), %: vs control 98; for Appearance Time, TV (ventricular tachycardium), %: vs control 112
From the text: (§2) Antiarrhythmic activity in mice was observed by means of the Lawson test, using the method described by J. W. Lawson, J. Pharmacol. Exp. Therp., 160, 22-31 (1968) and Cr. Narcisse et al. Ann. Pharma. Fr., 37, 325-330 (1979), in rats by the test with aconitine of S. Witchitz et al. Coeur Med. Int., X(2), 281-286 (1971), and in dogs by the Harris test described in Circulation, 1, 1318 (1950). 3S-hydroxy-10,11-dihydroquinidine was used for each of these three tests.

ventricular arrhythmia = experiment: Harris test; assay type: in vivo, dogs; details: for % Protection / % Protection, Average: dogs, I.V.; for % Protection, Average: average of Exp. 1 and 2
From the text: as §2

[4] = set-up: species or system dogs; details: dog, in vivo, iv
Procedure: The parameters were recorded by means of: catheters connected to pressure sensors (arterial pressure, left ventricular pressure and its first dp/dt derivative); electromagnetic flowmeter on the aorta (aortic flow); electrocardiograph; strain gauge placed on the left ventricular myocardium (myocardiac contraction force).

[5] = test system: anoxic ventricular fibrillation; experiment: Lawson test (antifibrillatory power); assay type: in vivo, mice
From the text: as §2
The Lawson test enables the study of the cardiac antifibrillatory power of the derivatives of the present invention. […] The efficacity dose 50 (ED50) indicated in Table 4 is the dose which protects half of the mice against anoxic ventricular fibrillation.

## CC[C@@]1(O)CN2CC[C@H]1C[C@@H]2[C@@H](O)c1ccnc2ccc(OC)cc12 [3S-hydroxy-10,11-dihydroquinidine]
[1]; ip, mice, female, IP, read-out: LD50
  LD50: 180 mg/kg
[1]; ip, mice, male, IP, read-out: LD50
  LD50: 280 mg/kg
[1]; iv, mice, female, IV, read-out: LD50
  LD50: 105 mg/kg
[1]; iv, mice, male, IV, read-out: LD50
  LD50: 120 mg/kg
[1]; po, mice, female, oral, read-out: LD50
  LD50: 900 mg/kg
[1]; po, mice, male, oral, read-out: LD50
  LD50: 975 mg/kg
[2]
  LD50: 640 mg/kg

## C=C[C@H]1C[N@@]2CC[C@H]1C[C@@H]2[C@@H](O)c1ccnc2ccc(OC)cc12 [Quinidine, quinidine, reference compound]
[1]; ip, mice (male and female), intraperitoneal, comparison, read-out: LD50 (average values)
  LD50: 225 to 235 mg/kg
[3]; 1 mg/kg
  Cardiac Cycle, percentage of variation: +2.7%
  HV (HissPurkinje conduction), percentage of variation: 0%
  PREA (Effective auricular refractory period), percentage of variation: +2%
  PREV (Effective ventricular refractory period), percentage of variation: +3.3%
  PRFN (Functional nodal refractory period), percentage of variation: +3%
  QRS (Intraventricular conduction), percentage of variation: 0%
  QTc (Corrected repolarization time), percentage of variation: +1.8%
  SH (AuriculoHissian conduction), percentage of variation: +3.5%
[3]; 5 mg/kg
  Cardiac Cycle, percentage of variation: +5.1%
  HV (HissPurkinje conduction), percentage of variation: +8.7%
  PREA (Effective auricular refractory period), percentage of variation: +3.5%
  PREV (Effective ventricular refractory period), percentage of variation: +6.5%
  PRFN (Functional nodal refractory period), percentage of variation: +5%
  QRS (Intraventricular conduction), percentage of variation: 0%
  QTc (Corrected repolarization time), percentage of variation: 0%
  SH (AuriculoHissian conduction), percentage of variation: +7.2%
[3]; 10 mg/kg
  Cardiac Cycle, percentage of variation: +9.2%
  HV (HissPurkinje conduction), percentage of variation: +17.7%
  PREA (Effective auricular refractory period), percentage of variation: +14.4%
  PREV (Effective ventricular refractory period), percentage of variation: +8.5%
  PRFN (Functional nodal refractory period), percentage of variation: +9%
  QRS (Intraventricular conduction), percentage of variation: 0%
  QTc (Corrected repolarization time), percentage of variation: +1.5%
  SH (AuriculoHissian conduction), percentage of variation: +10.5%
arrhythmia; rats, I.V., 10 mg/kg
  Appearance Time, ESV (ventricular extrasystoles): 150 min
  Appearance Time, TV (ventricular tachycardium): 171 min
  Appearance Time, FV (ventricular fibrillation): 474 min
  Appearance Time, ESV (ventricular extrasystoles), %: +53%
  Appearance Time, TV (ventricular tachycardium), %: +52%
Ventricular arrhythmia; quinidine, 6 mg/kg, 1 h
  % Protection: 21%
Ventricular arrhythmia; quinidine, +5 mg, 1 h
  % Protection: 55%
Ventricular arrhythmia; quinidine, +5 mg, 2 h
  % Protection: 52%

## CC[C@@]1(O)CN2CC[C@H]1C[C@@H]2[C@@H](O)c1ccnc2ccc(OC)cc12 [3S-hydroxy-10,11-dihydroquinidine, 3S-Hydroxy-10,11-dihydroquinidine]
[4]
  cardiac flow (in words): no significant change before a cumulative dose of 20 mg/kg is reached
  cardiac frequency (in words): not significantly modified before a cumulative dose of 20 mg/kg is reached
  myocardiac contraction force (in words): no change
  systolic arterial pressure (in words): diminishes progressively with the dose, the effects only becoming considerable for a cumulative dose greater than 10 mg/kg
[4]; 0.5 mg/kg
  Cardiac Flow, variation in relation to initial value: -50 ± 50 mL/min
  Cardiac Frequency, variation in relation to initial value: -2 ± 6 beats/min.
  Force of Contractions of the Myocardium, variation in relation to initial value: -3 ± 3 g
  Systolic Arterial Pressure, variation in relation to initial value: -11 ± 4 mmHg
  Total Peripheral Resistance, variation in relation to initial value: -382 ± 180
[4]; 4 mg/kg
  Cardiac Flow, variation in relation to initial value: -90 ± 143 mL/min
  Cardiac Frequency, variation in relation to initial value: -5 ± 2 beats/min.
  Force of Contractions of the Myocardium, variation in relation to initial value: 0 ± 1 g
  Systolic Arterial Pressure, variation in relation to initial value: -20 ± 5 mmHg
  Total Peripheral Resistance, variation in relation to initial value: -457 ± 277
[4]; 5 mg/kg
  Cardiac Flow, variation in relation to initial value: -316 ± 412 mL/min
  Cardiac Frequency, variation in relation to initial value: -3 ± 16 beats/min.
  Force of Contractions of the Myocardium, variation in relation to initial value: 2 ± 1 g
  Systolic Arterial Pressure, variation in relation to initial value: -23 ± 7 mmHg
  Total Peripheral Resistance, variation in relation to initial value: -376 ± 227
[4]; 10 mg/kg
  Cardiac Flow, variation in relation to initial value: -775 ± 498 mL/min
  Cardiac Frequency, variation in relation to initial value: -15 ± 13 beats/min.
  Force of Contractions of the Myocardium, variation in relation to initial value: 8 ± 1 g
  Systolic Arterial Pressure, variation in relation to initial value: -36 ± 13 mmHg
  Total Peripheral Resistance, variation in relation to initial value: -91
[3]; 1 mg/kg
  Cardiac Cycle, percentage of variation: +4.5%
  HV (HissPurkinje conduction), percentage of variation: +10.8%
  PREA (Effective auricular refractory period), percentage of variation: +8%
  PREV (Effective ventricular refractory period), percentage of variation: -1.5%
  PRFN (Functional nodal refractory period), percentage of variation: 0%
  QRS (Intraventricular conduction), percentage of variation: +14.4%
  QTc (Corrected repolarization time), percentage of variation: +2.8%
  SH (AuriculoHissian conduction), percentage of variation: +1.7%
[3]; 5 mg/kg
  Cardiac Cycle, percentage of variation: +5.1%
  HV (HissPurkinje conduction), percentage of variation: +20.9%
  PREA (Effective auricular refractory period), percentage of variation: +16%
  PREV (Effective ventricular refractory period), percentage of variation: +2.8%
  PRFN (Functional nodal refractory period), percentage of variation: +5.5%
  QRS (Intraventricular conduction), percentage of variation: +14.4%
  QTc (Corrected repolarization time), percentage of variation: +7%
  SH (AuriculoHissian conduction), percentage of variation: +3.8%
[3]; 10 mg/kg
  Cardiac Cycle, percentage of variation: +14. %
  HV (HissPurkinje conduction), percentage of variation: +32.8%
  PREA (Effective auricular refractory period), percentage of variation: +23.7%
  PREV (Effective ventricular refractory period), percentage of variation: +6.5%
  PRFN (Functional nodal refractory period), percentage of variation: +12.6%
  QRS (Intraventricular conduction), percentage of variation: +22%
  QTc (Corrected repolarization time), percentage of variation: +6%
  SH (AuriculoHissian conduction), percentage of variation: +15%
[3]; compared with quinidine
  cardiac frequency (in words): slows cardiac frequency like quinidine
  cardiac refractory periods, level of the auricles (in words): greater than those of quinidine
  cardiac refractory periods, ventricular and nodal stage (in words): effects equivalent to those of quinidine
  conduction in the His-Purkinje system (in words): effects greater than those of quinidine
[3]; dog, in vivo
  conduction between the auricles and the trunk of the His fasciculus (in words): slightly changes conduction
[5]; Mus musculus, ip, mice, I.P., read-out: ED 50 (dose which protects half of the mice against anoxic ventricular fibrillation)
  ED50: 72.5 mg/kg
[5]; compared with quinidine
  antifibrillatory efficacity (in words): comparable to that of quinidine
arrhythmia; compared with quinidine
  protective effect against arrhythmia (in words): greater than that of quinidine
arrhythmia; compared with quinidine, quantitative level
  activity in the test with aconitine (in words): considerably more active than quinidine
arrhythmia; rats, I.V., 10 mg/kg
  Appearance Time, ESV (ventricular extrasystoles): 208 min
  Appearance Time, TV (ventricular tachycardium): 253 min
  Appearance Time, FV (ventricular fibrillation): 504 min
  Appearance Time, ESV (ventricular extrasystoles), %: +112%
  Appearance Time, TV (ventricular tachycardium), %: +125%
arrhythmia; rats, I.V., 10 mg/kg, vs control 228
  Appearance Time, FV (ventricular fibrillation), %: +121%
Ventricular arrhythmia; 6 mg/kg, compared with quinidine
  decrease in ventricular arrhythmia (in words): greater with the compound of the present invention than with quinidine
Ventricular arrhythmia; 6 mg/kg, 1 h, Exp. 1
  % Protection: 65%
Ventricular arrhythmia; 6 mg/kg, 1 h, Exp. 2
  % Protection: 39%
Ventricular arrhythmia; 6 mg/kg, 1 h
  % Protection, Average: 52%
Ventricular arrhythmia; +10 mg/kg, 1 h, Exp. 1
  % Protection: 72%
Ventricular arrhythmia; +10 mg/kg, 1 h, Exp. 2
  % Protection: 42%
Ventricular arrhythmia; +10 mg/kg, 1 h
  % Protection, Average: 57%
Ventricular arrhythmia; +10 mg/kg, 2 h, Exp. 1
  % Protection: 97%
Ventricular arrhythmia; +10 mg/kg, 2 h, Exp. 2
  % Protection: 41%
Ventricular arrhythmia; +10 mg/kg, 2 h
  % Protection, Average: 69%
Ventricular arrhythmia; higher doses, compared with quinidine
  efficacity (in words): comparable for higher doses
